Values joined by “and” are separate entries in the source; they are usually repeats but may differ in a detail not shown here. Equal values may be shown once. Inconclusive results and toxic doses are left out.
System: B6C3F1 mice, Lewis lung carcinoma iv, survival T/C
Experiment: NCI In Vivo Anticancer Drug Screen. Data for tumor model Lewis Lung Carcinoma (intravenous) in B6C3F1 mice
Conditions: endpoint: median survival time, higher = longer survival
How it was run: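 Transplantable tumor in mice; compound treated vs vehicle controls; read-out survival; value = treated/control (T/C).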

[1] = dose: 12.5 mg/kg/injection, schedule: Q01DX009 (ip), vehicle: saline with Tween-80
[2] = dose: 25.0 mg/kg/injection, schedule: Q01DX009 (ip), vehicle: saline with Tween-80
[3] = dose: 50.0 mg/kg/injection, schedule: Q01DX009 (ip), vehicle: saline with Tween-80
[4] = dose: 100.0 mg/kg/injection, schedule: Q01DX009 (ip), vehicle: saline with Tween-80
[5] = dose: 200.0 mg/kg/injection, schedule: Q01DX009 (ip), vehicle: saline with Tween-80
[6] = dose: 12.5 mg/kg/injection, schedule: Q01DX009 (ip), vehicle: Klucel (hydroxypropylcellulose) (HPC)
[7] = dose: 25.0 mg/kg/injection, schedule: Q01DX009 (ip), vehicle: Klucel (hydroxypropylcellulose) (HPC)
[8] = dose: 50.0 mg/kg/injection, schedule: Q01DX009 (ip), vehicle: Klucel (hydroxypropylcellulose) (HPC)
[9] = dose: 100.0 mg/kg/injection, schedule: Q01DX009 (ip), vehicle: Klucel (hydroxypropylcellulose) (HPC)
[10] = dose: 200.0 mg/kg/injection, schedule: Q01DX009 (ip), vehicle: Klucel (hydroxypropylcellulose) (HPC)
[11] = dose: 6.25 mg/kg/injection, schedule: Q01DX009 (ip), vehicle: saline with Tween-80
[12] = dose: 400.0 mg/kg/injection, schedule: Q01DX009 (ip), vehicle: Klucel (hydroxypropylcellulose) (HPC)
[13] = dose: 25.0 mg/kg/injection, schedule: Q01DX009 (ip), vehicle: DMSO
[14] = dose: 100.0 mg/kg/injection, schedule: Q01DX009 (ip), vehicle: saline
[15] = dose: 200.0 mg/kg/injection, schedule: Q01DX009 (ip), vehicle: saline

O=P(O)(NCCCl)NCCCl
T/C (dose: 25.0 mg/kg/injection, schedule: Q01DX001 (ip), vehicle: saline with Tween-80): 108 % of control
T/C (dose: 100.0 mg/kg/injection, schedule: Q01DX001 (ip), vehicle: saline with Tween-80): 184 % of control and 226 % of control and 312 % of control
T/C (dose: 200.0 mg/kg/injection, schedule: Q01DX001 (ip), vehicle: saline with Tween-80): 281 % of control

O=C(Nc1ccccc1C(=O)O)c1cc([N+](=O)[O-])cc([N+](=O)[O-])c1
T/C [1]: 96 % of control
T/C [2]: 91 % of control
T/C [3]: 102 % of control
T/C [4]: 102 % of control
T/C [5]: 95 % of control

C=Cc1cnc([N+](=O)[O-])n1C
T/C [6]: 94 % of control
T/C [7]: 90 % of control
T/C [8]: 99 % of control
T/C [9]: 92 % of control
T/C [10]: 92 % of control

O=c1[nH]cnc2[nH]ncc12
T/C (dose: 12.5 mg/kg/injection, schedule: Q01DX009 (ip), vehicle: suspension in saline): 95 % of control
T/C (dose: 25.0 mg/kg/injection, schedule: Q01DX009 (ip), vehicle: suspension in saline): 105 % of control
T/C (dose: 50.0 mg/kg/injection, schedule: Q01DX009 (ip), vehicle: suspension in saline): 95 % of control
T/C (dose: 100.0 mg/kg/injection, schedule: Q01DX009 (ip), vehicle: suspension in saline): 106 % of control
T/C (dose: 200.0 mg/kg/injection, schedule: Q01DX009 (ip), vehicle: suspension in saline): 112 % of control
T/C (dose: 400.0 mg/kg/injection, schedule: Q01DX009 (ip), vehicle: suspension in saline): 120 % of control

C=C(C)C(=NC(C)(C)C)Nc1ccccc1
T/C [11]: 99 % of control
T/C [1]: 99 % of control
T/C [2]: 90 % of control
T/C [3]: 86 % of control
T/C [4]: 99 % of control
T/C [5]: 90 % of control

CNC(=O)c1cccc2c(Nc3ccc(NS(C)(=O)=O)cc3OC)c3cccc(C)c3nc12
T/C (dose: 3.0 mg/kg/injection, schedule: Q04DX003 (ip), vehicle: saline + alcohol): 114 % of control
T/C (dose: 3.12 mg/kg/injection, schedule: Q04DX003 (ip), vehicle: saline + alcohol): 118 % of control
T/C (dose: 6.0 mg/kg/injection, schedule: Q04DX003 (ip), vehicle: saline + alcohol): 156 % of control
T/C (dose: 12.5 mg/kg/injection, schedule: Q04DX003 (ip), vehicle: saline + alcohol): 181 % of control and 309 % of control (2×)
T/C (dose: 12.5 mg/kg/injection, schedule: Q04DX003 (ip), vehicle: water): 178 % of control
T/C (dose: 25.0 mg/kg/injection, schedule: Q04DX003 (ip), vehicle: water): 260 % of control

c1cc(OCC2CO2)ccc1OCC1CO1 (centres undefined)
T/C [1]: 96 % of control
T/C [2]: 94 % of control
T/C [3]: 100 % of control
T/C [4]: 96 % of control

C[Si](C)(C)OSc1ccccc1[N+](=O)[O-]
T/C [6]: 120 % of control
T/C [7]: 110 % of control
T/C [8]: 102 % of control
T/C [9]: 102 % of control
T/C [10]: 102 % of control
T/C [12]: 104 % of control

[N-]=[N+]=CC(=O)CCC(=O)C=[N+]=[N-]
T/C (dose: 0.39 mg/kg/injection, schedule: Q01DX009 (ip), vehicle: DMSO): 92 % of control
T/C (dose: 0.78 mg/kg/injection, schedule: Q01DX009 (ip), vehicle: DMSO): 95 % of control
T/C (dose: 1.5 mg/kg/injection, schedule: Q01DX009 (ip), vehicle: DMSO): 121 % of control
T/C (dose: 3.0 mg/kg/injection, schedule: Q01DX009 (ip), vehicle: DMSO): 112 % of control
T/C (dose: 6.0 mg/kg/injection, schedule: Q01DX009 (ip), vehicle: DMSO): 115 % of control
T/C [13]: 108 % of control

C=C1C(=O)OC2CC(C)C3C4OC4C(O)C3(C)C(O)C12 (centres undefined)
T/C (dose: 5.62 mg/kg/injection, schedule: Q01DX009 (ip), vehicle: saline): 100 % of control
T/C (dose: 11.25 mg/kg/injection, schedule: Q01DX009 (ip), vehicle: saline): 102 % of control
T/C (dose: 22.5 mg/kg/injection, schedule: Q01DX009 (ip), vehicle: saline): 100 % of control
T/C (dose: 45.0 mg/kg/injection, schedule: Q01DX009 (ip), vehicle: saline): 108 % of control
T/C (dose: 90.0 mg/kg/injection, schedule: Q01DX009 (ip), vehicle: saline): 105 % of control

CC1=NNC(=O)C1CCO (centres undefined)
T/C (dose: 6.25 mg/kg/injection, schedule: Q01DX009 (ip), vehicle: Klucel (hydroxypropylcellulose) (HPC)): 104 % of control
T/C [6]: 96 % of control
T/C [7]: 108 % of control
T/C [8]: 92 % of control and 99 % of control
T/C [10]: 98 % of control and 108 % of control
T/C [12]: 112 % of control

O=NN(CCF)C(=O)NC1CCC(=O)NC1=O (centres undefined)
T/C (dose: 2.5 mg/kg/injection, schedule: Q01DX009 (ip), vehicle: saline): 118 % of control
T/C (dose: 10.0 mg/kg/injection, schedule: Q01DX009 (ip), vehicle: saline): 166 % of control
T/C (dose: 20.0 mg/kg/injection, schedule: Q01DX009 (ip), vehicle: saline): 312 % of control

NC(=S)N/N=C/c1ccc(OC(=O)COc2ccc(Cl)cc2)cn1
T/C [1]: 99 % of control and 100 % of control
T/C [2]: 92 % of control and 99 % of control
T/C [3]: 95 % of control and 101 % of control
T/C [4]: 92 % of control and 107 % of control
T/C [5]: 116 % of control

BrC1CC(Br)c2c1c1c(c3c2C(Br)CC3Br)C(Br)CC1Br (centres undefined)
T/C [1]: 99 % of control
T/C [2]: 103 % of control
T/C [3]: 92 % of control
T/C [5]: 121 % of control
T/C (dose: 400.0 mg/kg/injection, schedule: Q01DX009 (ip), vehicle: saline with Tween-80): 112 % of control

O=C(O)[C@H](Cc1ccccc1)N1C(=O)c2ccccc2C1=O
T/C (dose: 3.12 mg/kg/injection, schedule: Q01DX009 (ip), vehicle: DMSO): 102 % of control
T/C (dose: 6.25 mg/kg/injection, schedule: Q01DX009 (ip), vehicle: DMSO): 105 % of control
T/C (dose: 12.5 mg/kg/injection, schedule: Q01DX009 (ip), vehicle: DMSO): 105 % of control
T/C [13]: 100 % of control
T/C (dose: 50.0 mg/kg/injection, schedule: Q01DX009 (ip), vehicle: DMSO): 98 % of control

NC(CCC(=O)NC(CS)C(=O)NCC(=O)O)C(=O)O (centres undefined)
T/C (dose: 50.0 mg/kg/injection, schedule: Q01DX009 (ip), vehicle: saline): 100 % of control
T/C [14]: 101 % of control
T/C [15]: 95 % of control
T/C (dose: 400.0 mg/kg/injection, schedule: Q01DX009 (ip), vehicle: saline): 103 % of control

COc1cccc2c1C(=O)c1c(O)c3c(c(O)c1C2=O)C[C@@](O)(C(=O)CO)C[C@@H]3OC1CC(OC(C)=O)C(OC(C)=O)C(C)O1 (some centres undefined)
T/C (dose: 0.78 mg/kg/injection, schedule: Q01DX009 (ip), vehicle: water): 91 % of control
T/C (dose: 1.5 mg/kg/injection, schedule: Q01DX009 (ip), vehicle: water): 119 % of control
T/C (dose: 1.56 mg/kg/injection, schedule: Q01DX009 (ip), vehicle: distilled water + Tween-80): 106 % of control
T/C (dose: 1.56 mg/kg/injection, schedule: Q01DX009 (ip), vehicle: water): 103 % of control
T/C (dose: 3.0 mg/kg/injection, schedule: Q01DX009 (ip), vehicle: water): 111 % of control
T/C (dose: 3.12 mg/kg/injection, schedule: Q01DX009 (ip), vehicle: distilled water + Tween-80): 113 % of control
T/C (dose: 3.12 mg/kg/injection, schedule: Q01DX009 (ip), vehicle: water): 111 % of control
T/C (dose: 12.0 mg/kg/injection, schedule: Q01DX009 (ip), vehicle: water): 266 % of control
T/C (dose: 12.5 mg/kg/injection, schedule: Q01DX009 (ip), vehicle: distilled water + Tween-80): 285 % of control

O=C1CN(Cc2ccc3c(c2)OCO3)NO1
T/C [11]: 104 % of control and 109 % of control
T/C [1]: 106 % of control and 87 % of control
T/C [2]: 104 % of control and 123 % of control
T/C [3]: 104 % of control and 111 % of control
T/C [4]: 123 % of control and 86 % of control

CNC=O
T/C [14]: 106 % of control
T/C [15]: 110 % of control

Nc1nnc[se]1
T/C (dose: 3.12 mg/kg/injection, schedule: Q01DX009 (ip), vehicle: saline with Tween-80): 122 % of control
T/C [11]: 123 % of control
T/C [1]: 123 % of control
